Measurements taken from patent US9376454B2, “Beta-lactamase inhibitors” (priority 2013, dated 2016).
Where two headings read alike, the source gives them in different places.

Key:
SHV-5 β-lactamase = molecular target: T1, SHV-5 β-lactamase (Klebsiella pneumoniae, UniProt P0A3M1); assay: β-Lactamase inhibition enzyme assay, SHV-5; type: biochemical
T1 construct: made in house; host or cells: E. coli BL21(DE3)
Summary of the method: (§1)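 Native untagged β-lactamases from E. coli BL21(DE3) were purified and preincubated with inhibitor 15 min at 37° C. Hydrolysis was then followed as initial rates: 100 μM nitrocefin at 486 nm for p99 AmpC and OXA-1, imipenem at 300 nm for KPC-2, cefotaxime at 260 nm for SHV-5. IC50 = 50% reduction versus no-inhibitor controls.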

KPC-2 β-lactamase = molecular target: T2, KPC-2 β-lactamase (Klebsiella pneumoniae, UniProt Q9F663); assay: β-Lactamase inhibition enzyme assay, KPC-2; type: biochemical
T2 construct: made in house; host or cells: E. coli BL21(DE3)
T2 sequence (Q9F663 25-293, looked up): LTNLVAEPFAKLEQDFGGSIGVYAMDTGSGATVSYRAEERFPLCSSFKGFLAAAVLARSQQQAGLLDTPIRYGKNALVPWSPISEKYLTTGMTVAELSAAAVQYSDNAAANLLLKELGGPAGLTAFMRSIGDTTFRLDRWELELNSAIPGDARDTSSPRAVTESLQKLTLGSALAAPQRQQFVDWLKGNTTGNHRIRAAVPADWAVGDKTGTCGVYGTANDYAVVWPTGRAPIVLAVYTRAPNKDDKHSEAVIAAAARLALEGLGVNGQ
Summary of the method: as §1

[1] = molecular target: T3, VIM-2 metallo β-lactamase (Pseudomonas aeruginosa, UniProt Q9K2N0); assay: β-Lactamase inhibition enzyme assay, VIM-2; type: biochemical; conditions: Nitrocefin 100 μM as substrate, 486 nm; 15 min at 37° C. with enzyme, PBS pH 7.4; read-out: Class B VIM-2 IC50
T3 construct: made in house; host or cells: E. coli BL21(DE3)
Summary of the method: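 Purified untagged VIM-2, expressed in E. coli BL21(DE3), preincubated with inhibitor 15 min at 37 °C. Nitrocefin added at 100 μM final, and absorbance at 486 nm monitored for 10 min. IC50 taken as inhibitor concentration halving initial hydrolysis rate relative to uninhibited controls.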

p99 AmpC β-lactamase = molecular target: T4, p99 AmpC β-lactamase (Enterobacter cloacae, UniProt P05364); assay: β-Lactamase inhibition enzyme assay, p99 AmpC; type: biochemical
T4 construct: made in house; host or cells: E. coli BL21(DE3)
T4 sequence (P05364 21-381): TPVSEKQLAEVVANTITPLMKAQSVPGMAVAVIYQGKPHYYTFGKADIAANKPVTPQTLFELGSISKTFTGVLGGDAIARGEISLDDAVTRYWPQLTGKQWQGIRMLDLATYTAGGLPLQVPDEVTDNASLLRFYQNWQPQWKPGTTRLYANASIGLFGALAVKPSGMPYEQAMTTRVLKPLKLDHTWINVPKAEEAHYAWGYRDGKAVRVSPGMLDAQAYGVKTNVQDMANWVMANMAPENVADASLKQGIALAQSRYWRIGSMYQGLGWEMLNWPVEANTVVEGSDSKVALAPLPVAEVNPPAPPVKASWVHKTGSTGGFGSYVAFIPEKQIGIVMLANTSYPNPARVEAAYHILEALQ
Summary of the method: as §1

OXA-1 β-lactamase = molecular target: T5, OXA-1 β-lactamase (Escherichia coli, UniProt P13661); assay: β-Lactamase inhibition enzyme assay, OXA-1; type: biochemical
T5 construct: made in house; host or cells: E. coli BL21(DE3)
T5 sequence (P13661 26-276): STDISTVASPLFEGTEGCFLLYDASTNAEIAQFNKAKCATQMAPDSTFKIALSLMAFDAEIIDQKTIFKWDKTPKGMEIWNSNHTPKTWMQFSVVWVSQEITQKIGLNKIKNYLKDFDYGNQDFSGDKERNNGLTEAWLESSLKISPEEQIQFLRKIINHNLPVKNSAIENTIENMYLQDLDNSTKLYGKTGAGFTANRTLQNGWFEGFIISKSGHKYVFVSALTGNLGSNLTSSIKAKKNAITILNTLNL
Summary of the method: as §1

[2] = test system: S. aureus MSSA-7 producing penicillinase PC-1; assay: Broth microdilution MIC assay, S. aureus PC-1; type: cell-based
[3] = test system: P. aeruginosa Ps296 expressing VIM-2; assay: Broth microdilution MIC assay, P. aeruginosa VIM-2; type: cell-based; conditions: P. aeruginosa expressing carbapenemase VIM-2
[4] = test system: K. pneumoniae A-1797 expressing KPC-2 and VIM-4; assay: Broth microdilution MIC assay, K. pneumoniae KPC-2 and VIM-4; type: cell-based; conditions: K. pneumoniae expressing KPC-2 and VIM-4
[5] = test system: E. cloacae 144200 expressing p99 AmpC; assay: Broth microdilution MIC assay, E. cloacae P99; type: cell-based; conditions: fixed ceftazidime 4 μg/mL; CAMHB, 16-20 hours at 37° C.
[6] = test system: E. coli ESBL4 expressing CTX-M-15; assay: Broth microdilution MIC assay, E. coli CTX-M-15; type: cell-based; conditions: E. coli expressing Class A ESBL CTX-M-15
[7] = imipenem as substrate, 300 nm, 15 min at 37° C. with enzyme, PBS pH 7.4, read-out: Class A KPC-2 IC50
[8] = Nitrocefin 100 μM as substrate, 486 nm, 15 min at 37° C. with enzyme, PBS pH 7.4, read-out: Class D OXA-1 IC50

T1 sequence (P0A3M1 22-286): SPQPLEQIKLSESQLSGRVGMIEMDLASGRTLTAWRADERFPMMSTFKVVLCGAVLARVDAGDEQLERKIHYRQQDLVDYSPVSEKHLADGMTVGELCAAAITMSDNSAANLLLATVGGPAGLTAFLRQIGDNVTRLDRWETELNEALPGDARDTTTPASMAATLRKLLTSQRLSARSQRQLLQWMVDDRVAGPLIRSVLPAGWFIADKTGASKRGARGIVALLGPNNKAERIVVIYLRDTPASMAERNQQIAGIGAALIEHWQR

SMILES | IC50 (SHV-5 β-lactamase) [nM] | IC50 [1] [nM] | IC50 (p99 AmpC β-lactamase) [nM] | IC50 (KPC-2 β-lactamase; [7]) [nM] | IC50 (OXA-1 β-lactamase; [8]) [nM] | further results
O=C(O)c1cccc2c1OB(O)[C@@H](NC(=O)C1(c3ccccc3)CCNCC1)C2 [Example 3, (R)-2-hydroxy-3-(4-phenylpiperidine-4-carboxamido)-3,4-dihydro-2H-benzo[e][1,2]oxaborinine-8-carboxylic acid] | 10000 to 100000 | 1000 to 10000 | < 100 |  |  | IC50 (KPC-2 β-lactamase): < 100 nM; IC50 (OXA-1 β-lactamase): 100 to 1000 nM; MIC of Exemplary Compounds in presence of fixed β-lactams: Fixed Pip, S. aureus MSSA-7 PC-1 ([2]; fixed piperacillin 4 μg/mL, CAMHB, 16-20 hours at 37° C.): A (A represents an MIC of the fixed β-lactam antibiotic in the presence of >32 μg/mL of a β-lactamase inhibitor of exemplary compounds)
CCN1CCN(C(=O)N[C@@H](C(=O)N[C@@H]2C(=O)N3[C@@H]2SC(C)(C)[C@@H]3C(=O)O)c2ccccc2)C(=O)C1=O [Piperacillin, reference compound] |  |  |  |  |  | MIC alone of partner antibiotic ([2]; antibiotic alone, S. aureus producing penicillinase PC-1): 64 µg/mL
C[C@@H](O)[C@H]1C(=O)N2C(C(=O)O)=C(S[C@@H]3CN[C@H](C(=O)N(C)C)C3)[C@H](C)[C@H]12 [Meropenem] |  |  |  |  |  | MIC alone of partner antibiotic [3]: 16 µg/mL; MIC alone of partner antibiotic [4]: 64 µg/mL
NCc1cc(CN)cc(C(=O)N[C@H]2Cc3cccc(C(=O)O)c3OB2O)c1 [Example 44, (R)-3-(3,5-bis(aminomethyl)benzamido)-2-hydroxy-3,4-dihydro-2H-benzo[e][1,2]oxaborinine-8-carboxylic acid] | 1000 to 10000 | 1000 to 10000 | 100 to 1000 | 1000 to 10000 | 1000 to 10000 | MIC of Exemplary Compounds in presence of fixed β-lactams: Fixed CAZ, E. cl. 144200 p99 AmpC [5]: C (C represents the MIC in the presence of ≦4 μg/mL of a β-lactamase inhibitor of exemplary compounds)
CC(C)(O/N=C(\C(=O)N[C@@H]1C(=O)N2C(C(=O)[O-])=C(C[n+]3ccccc3)CS[C@H]12)c1csc(N)n1)C(=O)O [Ceftazidime] |  |  |  |  |  | MIC alone of partner antibiotic [6]: > 128 µg/mL
CN(C)Cc1ccc(C(=O)N[C@H]2Cc3cccc(C(=O)O)c3OB2O)cc1N [Example 18, (R)-3-(3-amino-4-((dimethylamino)methyl)benzamido)-2-hydroxy-3,4-dihydro-2H-benzo[e][1,2]oxaborinine-8-carboxylic acid] | < 100 | 100 to 1000 | < 100 | < 100 | < 100 | 
O=C(N[C@H]1Cc2cccc(C(=O)O)c2OB1O)c1ccc2c(c1)CCNC2 [Example 5, (R)-3-(2-borono-2-(1,2,3,4-tetrahydroisoquinoline-6-carboxamido)ethyl)-2-hydroxybenzoic acid] | < 100 | 100 to 1000 | < 100 | < 100 | < 100 | 
O=C(O)c1cccc2c1OB(O)[C@@H](NC(=O)C(F)(F)c1ccccc1)C2 [Example 2, (R)-3-(2,2-difluoro-2-phenylacetamido)-2-hydroxy-3,4-dihydro-2H-benzo[e][1,2]oxaborinine-8-carboxylic acid] | < 100 | 1000 to 10000 | < 100 | < 100 | < 100 | 
NCCOc1ccc(CC(=O)N[C@H]2Cc3cccc(C(=O)O)c3OB2O)cc1OCCN [Example 58, (R)-3-(2-(3,4-bis(2-aminoethoxy)phenyl)acetamido)-2-hydroxy-3,4-dihydro-2H-benzo[e][1,2]oxaborinine-8-carboxylic acid] | < 100 | 100 to 1000 | < 100 | < 100 | < 100 | 
NCc1ccc(CC(=O)N[C@H]2Cc3cccc(C(=O)O)c3OB2O)cc1CN [Example 20, (R)-3-(2-(3,4-bis(aminomethyl)phenyl)acetamido)-2-hydroxy-3,4-dihydro-2H-benzo[e][1,2]oxaborinine-8-carboxylic acid] | < 100 | < 100 | < 100 | < 100 | < 100 | 
O=C(O)c1cccc2c1OB(O)[C@@H](NC(=O)c1cccc3cc[nH]c13)C2 [Example 31, (R)-2-hydroxy-3-(1H-indole-7-carboxamido)-3,4-dihydro-2H-benzo[e][1,2]oxaborinine-8-carboxylic acid] | 100 to 1000 | 1000 to 10000 | < 100 | < 100 | < 100 | 
